What is called IC50 is the point on the concentration scale where inhibition reaches its midpoint. The term Kd denotes the concentration at which binding is half-saturated. Low values mean tighter binding, high ones weaker binding.

Molecules are shown by their SMILES. Substitutions are numbered along the chain they refer to. Like-named read-outs stand apart in the source and are kept apart here.

In paper doi:10.1101/2024.09.09.611999v1 (biorxiv, 2024) one finds IC50 and Kd data, which are given here for two molecules.

The target in one assay is T1, overexpressed PRDX6 (Homo sapiens, UniProt P30041).
T1 sequence (P30041 2-224): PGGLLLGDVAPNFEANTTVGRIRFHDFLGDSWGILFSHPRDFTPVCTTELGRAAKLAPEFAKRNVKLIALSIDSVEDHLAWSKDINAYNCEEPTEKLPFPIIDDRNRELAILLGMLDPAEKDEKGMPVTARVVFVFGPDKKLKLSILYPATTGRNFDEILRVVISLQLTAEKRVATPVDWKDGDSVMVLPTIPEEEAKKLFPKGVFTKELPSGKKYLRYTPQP
The assay is described as follows: H2O2 clearance. Format: cell-based.

Assay [1] deals with T2, PRDX6 with GFP tag (Homo sapiens, UniProt P30041, C91A).
T2 sequence (P30041 2-224 C91A): T1 sequence (P30041 2-224) with C90A
Briefly: cellular microscale thermophoresis, GFP fusion.

In assay [2] the target is T3, PRDX6 with GFP tag (Homo sapiens, UniProt P30041, E210A).
T3 sequence (P30041 2-224 E210A): T1 sequence (P30041 2-224) with E209A
Briefly: cellular microscale thermophoresis, GFP fusion. (Microscale thermophoresis detects binding through changes in fluorescence in a small temperature gradient.)

Consider `CC(=O)N[C@@H](CS)C(=O)O` [NAC, reference compound], for which the IC50 against overexpressed PRDX6 (substrate H2O2) turned out to be 15.5 µM.
With `O=c1cc(-c2ccc(O)cc2)oc2cc(O)cc(O)c12` [apigenin, 4’,5,7-trihydroxyflavone], the Kd turned out to be 10.9 µM at PRDX6 with GFP tag [1] and 14.5 µM at PRDX6 with GFP tag [2]. Besides, the IC50 against overexpressed PRDX6 was found to be 49.5 µM.
